Laboratory results: ChEMBL document CHEMBL1124454, “2,3-Dihydro-5-benzofuranols as antioxidant-based inhibitors of leukotriene biosynthesis” (J Med Chem, 1989)

What was measured:
[1] = species on record: Homo sapiens; experiment: cells
[2] = physchem; settings: octanol/water
Description: Partition coefficient (logP)

[3] = species on record: Homo sapiens; experiment: Inhibitory activity against Leukotriene (LTB4) biosynthesis in isolated human polymorphonuclear cells (PMNs); not active; assay type: functional

Structure (SMILES)	IC50 [1]	logP [2]	IC50 [3]
O=C1CCN(c2ccccc2)N1 [PHENIDONE]	8000 nM	–	–
OCCc1ccccc1OCCCc1cc2c(cc1O)CCO2	290 nM	3.5	–
O=C(O)Cc1ccc(OCCCOc2cc3c(cc2O)CCO3)cc1	–	–	Not Active
C=CCc1cc2c(c(C)c1O)CCO2	130 nM	3.5	–
Cc1c(O)c(CCCSc2ccccc2)cc2c1CCO2	19 nM	5.9	–
CCCc1cc2c(c(C)c1O)CCO2	160 nM	4.1	–
C=CCc1c(O)ccc2c1CCO2	2100 nM	2.9	–
O=C(O)c1cccc(OCCCOc2cc3c(cc2O)CCO3)c1	5100 nM	–	–
CCCc1c(O)ccc2c1CCO2	1000 nM	3.4	–
COC(=O)c1ccccc1OCCCOc1cc2c(cc1O)CCO2	47 nM	3.4	–
COC(=O)c1cccc(OCCCOc2cc3c(cc2O)CCO3)c1	68 nM	3.7	–
O=C(O)CCCc1cc2c(cc1O)CCO2	–	–	Not Active
COC(=O)Cc1ccc(OCCCOc2cc3c(cc2O)CCO3)cc1	120 nM	3.1	–
CC(C)(C)c1c(O)ccc2c1CCO2	730 nM	3.7	–
Oc1ccc2c(c1CCCSc1ccccc1)CCO2	120 nM	4.9	–
CCCc1cc2c(c(C(C)(C)C)c1O)CCO2	430 nM	5.4	–
Oc1ccc2c(c1CCCOc1ccccc1)CCO2	290 nM	4.3	–
COC(=O)c1ccc(OCCCOc2cc3c(cc2O)CCO3)cc1	71 nM	3.7	–
CCCc1cc2c(c(Br)c1O)CCO2	65 nM	4.3	–
COCCOc1cc2c(cc1O)CCO2	3200 nM	1.3	–
Oc1ccc2c(c1CCCSCc1cccnc1)CCO2	2000 nM	3.3	–
Oc1ccc2c(c1CCCNc1ccccc1)CCO2	1400 nM	3.8	–
O=C(O)c1ccccc1OCCCOc1cc2c(cc1O)CCO2	–	–	Not Active
OCCCc1c(O)ccc2c1CCO2	33000 nM	1.4	–

More lines, now with the values ahead:

IC50 [1]	logP [2]	IC50 [3]	Structure (SMILES)
19 nM	4.9	–	Oc1cc2c(cc1CCCSc1ccccc1)OCC2
290 nM	3.4	–	CCCc1cc2c(cc1O)CCO2
28 nM	4.9	–	Oc1cc2c(cc1SCCCc1ccccc1)OCC2
55 nM	5.1	–	Oc1cc2c(cc1CCCOc1ccc(Cl)cc1)OCC2
110 nM	4.1	–	Oc1cc2c(cc1SCc1ccccc1)OCC2
2800 nM	2.8	–	Oc1cc2c(cc1Sc1ccccn1)OCC2
9 nM	6	–	CCCc1ccc(OCCCc2cc3c(cc2O)CCO3)cc1
790 nM	3.7	–	CC(C)(C)c1cc2c(cc1O)CCO2
420 nM	3.7	–	Oc1cc2c(cc1Oc1ccccc1)OCC2
140 nM	4.1	–	Oc1cc2c(cc1Sc1ccccc1)OCC2
280 nM	3.3	–	Oc1cc2c(cc1CCCSCc1cccnc1)OCC2
57 nM	4.3	–	Oc1cc2c(cc1CCCOc1ccccc1)OCC2
320 nM	3.4	–	Oc1cc2c(cc1OCCCOc1ccccc1)OCC2
140 nM	3.8	–	Oc1cc2c(cc1CCCNc1ccccc1)OCC2
10000 nM	1.4	–	OCCCc1cc2c(cc1O)CCO2
60 nM	3.5	–	OCCc1cccc(OCCCc2cc3c(cc2O)CCO3)c1
340 nM	3.5	–	OCCc1ccc(OCCCc2cc3c(cc2O)CCO3)cc1
300 nM	3.3	–	CC(C)c1cc2c(cc1O)CCO2
1200 nM	2.8	–	Oc1cc2c(cc1Sc1cccnc1)OCC2
4000 nM	1.7	–	Oc1ccc2c(c1)CCO2
470 nM	2.6	–	CCCOc1cc2c(cc1O)CCO2
28 nM	4.5	–	Oc1cc2c(cc1CCCOc1ccc(F)cc1)OCC2
480 nM	2.9	–	C=CCc1cc2c(cc1O)CCO2
66 nM	4.4	–	Oc1cc2c(cc1SCCc1ccccc1)OCC2
51 nM	4.2	–	Oc1cc2c(cc1OCCCc1ccccc1)OCC2
2600 nM	2.8	–	Oc1cc2c(cc1Sc1ccncc1)OCC2
1400 nM	1.8	–	N#CCCCc1cc2c(cc1O)CCO2
280 nM	3.9	–	Oc1cc2c(cc1Cc1ccccc1)OCC2
180 nM	3.1	–	CCCCOc1cc2c(cc1O)CCO2
